Reference: patent US11725000B2, “Apoptosis inhibitors” (National Institute of Biological Sciences, Beijing, priority 2017, dated 2023)

system: U2OS_Bim cells; assay: Apoptosis inhibition assay (Bim-induced apoptosis, cell viability by ATP level); assay type: cell-based; conditions: U2OS_Bim cells; estimated based on preliminary results; numbering of Tables 4a/4b; read-out: EC50
Method in brief: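 Apoptosis was triggered by doxycycline (0.1 μg/mL) induction of Bim, one hour after compound addition to U2OS_Bim cells. Survival was measured after 24 h from cellular ATP (CellTiter-Glo), relative to DMSO, with zVAD at 20 μM as rescue control. Data are duplicate means, some estimated from preliminary results.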

Compound | EC50
COc1ccc(Cn2cc(-c3cc(C(F)(F)F)nc([S+]([O-])Cc4ccccn4)n3)ccc2=O)cc1OC (centres unmarked) [Compound 187] | < 10 µM
COc1ccc(Cn2cc(-c3cc(C(F)(F)F)nc(S(=O)(=O)Cc4cccnc4)n3)ccc2=O)cc1OC [Compound 188] | < 10 µM
COc1ccc(Cn2cc(-c3cc(C(F)(F)F)nc(S(=O)(=O)Cc4ccccn4)n3)ccc2=O)cc1OC [Compound 189] | < 10 µM
COc1ccc(Cn2cc(-c3cc(C(F)(F)F)nc(S(=O)(=O)Cc4ccncc4)n3)ccc2=O)cc1OC [Compound 190] | < 10 µM
COc1ccc(Cn2cc(-c3cc(C(F)(F)F)nc([S+]([O-])Cc4ccncc4)n3)ccc2=O)cc1OC (centres unmarked) [Compound 191] | < 10 µM
COc1ccc(Cn2cc(-c3cc(C(F)(F)F)nc([S+]([O-])Cc4cccnc4)n3)ccc2=O)cc1OC (centres unmarked) [Compound 192] | < 10 µM
COc1ccc(Cn2cc(-c3cc(C(F)(F)F)nc([S+]([O-])Cn4ncnn4)n3)ccc2=O)cc1OC (centres unmarked) [Compound 193] | < 10 µM
COc1ccc(Cn2cc(-c3cc(C(F)(F)F)nc(S(=O)(=O)CN4CCCC4)n3)ccc2=O)cc1OC [Compound 194] | < 10 µM
COc1ccc(Cn2cc(-c3cc(C(F)(F)F)nc(S(=O)(=O)Cn4ncnn4)n3)ccc2=O)cc1OC [Compound 195] | < 10 µM
COc1ccc(Cn2cc(-c3cc(C(F)(F)F)nc(S(=O)(=O)CN4CCCCC4)n3)ccc2=O)cc1OC [Compound 196] | < 10 µM
COc1ccc(Cn2cc(-c3cc(C(F)(F)F)nc([S+]([O-])CN4CCCCC4)n3)ccc2=O)cc1OC (centres unmarked) [Compound 197] | < 10 µM
COc1ccc(Cn2cc(-c3cc(C(F)(F)F)nc([S+]([O-])CN4CCCC4)n3)ccc2=O)cc1OC (centres unmarked) [Compound 198] | < 10 µM
COc1ccc(Cn2cc(-c3cc(C(F)(F)F)nc(S(=O)(=O)CN(C)C)n3)ccc2=O)cc1OC [Compound 199] | < 10 µM
COc1ccc(Cn2cc(-c3cc(C(F)(F)F)nc([S+]([O-])CN(C)C)n3)ccc2=O)cc1OC (centres unmarked) [Compound 200] | < 10 µM
COc1ccc(Cn2cc(-c3cc(F)nc(S(C)(=O)=O)n3)ccc2=O)cc1OC [Compound 201, 1-(3,4-dimethoxybenzyl)-5-(6-fluoro-2-(methylsulfonyl)pyrimidin-4-yl)pyridin-2 (1H)-one] | < 10 µM
COc1ccc(Cn2cc(-c3cc(C(F)F)nc([S+](C)[O-])n3)ccc2=O)cc1OC (centres unmarked) [Compound 202, 5-(6-(difluoromethyl)-2-(methylsulfinyl)pyrimidin-4-yl)-1-(3,4-dimethoxybenzyl)pyridin-2 (1H)-one] | < 10 µM
COc1ccc(Cn2cc(-c3cc(CF)nc([S+](C)[O-])n3)ccc2=O)cc1OC (centres unmarked) [Compound 203, 1-(3,4-dimethoxybenzyl)-5-(6-(fluoromethyl)-2-(methylsulfinyl)pyrimidin-4-yl)pyridin-2 (1H)-one] | < 10 µM
COc1ccc(Cn2cc(-c3cc(-c4ccc[nH]4)nc(S(C)(=O)=O)n3)ccc2=O)cc1OC [Compound 204] | < 10 µM
COc1ccc(Cn2cc(-c3cc(-c4ccc[nH]4)nc([S+](C)[O-])n3)ccc2=O)cc1OC (centres unmarked) [Compound 205] | < 10 µM
COc1ccc(Cn2cc(-c3cc(-c4ccco4)nc(S(C)(=O)=O)n3)ccc2=O)cc1OC [Compound 206] | < 10 µM
COc1ccc(Cn2cc(-c3cc(-c4ccco4)nc([S+](C)[O-])n3)ccc2=O)cc1OC (centres unmarked) [Compound 207] | < 10 µM
COc1ccc(Cn2cc(-c3cc(C4=CCC=C4)nc(S(C)(=O)=O)n3)ccc2=O)cc1OC [Compound 208] | < 10 µM
COc1ccc(Cn2cc(-c3cc(C4=CCC=C4)nc([S+](C)[O-])n3)ccc2=O)cc1OC (centres unmarked) [Compound 209] | < 10 µM
COc1ccc(Cn2cc(-c3cc(-c4ncco4)nc([S+](C)[O-])n3)ccc2=O)cc1OC (centres unmarked) [Compound 210] | < 10 µM
COc1ccc(Cn2cc(-c3cc(-c4ncco4)nc(S(C)(=O)=O)n3)ccc2=O)cc1OC [Compound 211] | < 10 µM
COc1ccc(Cn2cc(-c3cc(-c4cnco4)nc(S(C)(=O)=O)n3)ccc2=O)cc1OC [Compound 212] | < 10 µM
COc1ccc(Cn2cc(-c3cc(-c4nccs4)nc([S+](C)[O-])n3)ccc2=O)cc1OC (centres unmarked) [Compound 213] | < 10 µM
COc1ccc(Cn2cc(-c3cc(-c4cnco4)nc([S+](C)[O-])n3)ccc2=O)cc1OC (centres unmarked) [Compound 214] | < 10 µM
COc1ccc(Cn2cc(-c3cc(-c4cncs4)nc(S(C)(=O)=O)n3)ccc2=O)cc1OC [Compound 215] | < 10 µM

Next, values leading:

EC50 | Compound
< 10 µM | COc1ccc(Cn2cc(-c3cc(-c4cncs4)nc([S+](C)[O-])n3)ccc2=O)cc1OC (centres unmarked) [Compound 216]
< 10 µM | COc1ccc(Cn2cc(-c3cc(-c4nccs4)nc(S(C)(=O)=O)n3)ccc2=O)cc1OC [Compound 217]
< 10 µM | COc1ccc(Cn2cc(-c3cc(-n4cccc4)nc([S+](C)[O-])n3)ccc2=O)cc1OC (centres unmarked) [Compound 218]
< 10 µM | COc1ccc(Cn2cc(-c3cc(-n4cccc4)nc(S(C)(=O)=O)n3)ccc2=O)cc1OC [Compound 219]
< 10 µM | COc1ccc(Cn2cc(-c3cc(-n4cccn4)nc([S+](C)[O-])n3)ccc2=O)cc1OC (centres unmarked) [Compound 220]
< 10 µM | COc1ccc(Cn2cc(-c3cc(-n4ccnc4)nc([S+](C)[O-])n3)ccc2=O)cc1OC (centres unmarked) [Compound 221]
< 10 µM | COc1ccc(Cn2cc(-c3cc(-n4ccnc4)nc(S(C)(=O)=O)n3)ccc2=O)cc1OC [Compound 222]
< 10 µM | C[S+]([O-])c1nc(-c2ccc(=O)n(Cc3ccc4c(c3)OCO4)c2)cc(C(F)(F)F)n1 (centres unmarked) [Compound 223]
< 10 µM | CS(=O)(=O)c1nc(-c2ccc(=O)n(Cc3ccc4ocnc4c3)c2)cc(C(F)(F)F)n1 [Compound 224]
< 10 µM | C[S+]([O-])c1nc(-c2ccc(=O)n(Cc3ccc4ocnc4c3)c2)cc(C(F)(F)F)n1 (centres unmarked) [Compound 225]
< 10 µM | CS(=O)(=O)c1nc(-c2ccc(=O)n(Cc3ccc4scnc4c3)c2)cc(C(F)(F)F)n1 [Compound 226]
< 10 µM | C[S+]([O-])c1nc(-c2ccc(=O)n(Cc3ccc4ocnc4c3)c2)cc(C(F)(F)F)n1 (centres unmarked) [Compound 227]
< 10 µM | CS(=O)(=O)c1nc(-c2ccc(=O)n(Cc3ccc4[nH]cnc4c3)c2)cc(C(F)(F)F)n1 [Compound 228]
< 10 µM | C[S+]([O-])c1nc(-c2ccc(=O)n(Cc3ccc4[nH]cnc4c3)c2)cc(C(F)(F)F)n1 (centres unmarked) [Compound 229]
< 10 µM | CS(=O)(=O)c1nc(-c2ccc(=O)n(Cc3ccc4c(c3)OCCO4)c2)cc(C(F)(F)F)n1 [Compound 230]
< 10 µM | C[S+]([O-])c1nc(-c2ccc(=O)n(Cc3ccc4c(c3)OCCO4)c2)cc(C(F)(F)F)n1 (centres unmarked) [Compound 231]
< 10 µM | CNc1ccc(Cn2cc(-c3cc(C(F)(F)F)nc(S(C)(=O)=O)n3)ccc2=O)cc1NC [Compound 232]
< 10 µM | CNc1ccc(Cn2cc(-c3cc(C(F)(F)F)nc([S+](C)[O-])n3)ccc2=O)cc1NC (centres unmarked) [Compound 233]
< 10 µM | CS(=O)(=O)c1nc(-c2ccc(=O)n(Cc3ccc4c(c3)NCCN4)c2)cc(C(F)(F)F)n1 [Compound 234]

same assay, conditions: U2OS_Bim cells; means of duplicates; numbering of Tables 4a/4b; read-out: EC50

EC50 | Compound
< 100 µM | CNS(=O)(=O)CCC[S+]([O-])c1nc(-c2ccc(=O)n(Cc3ccc(OC)c(OC)c3)c2)cc(C(F)F)n1 (centres unmarked) [Compound 179, 3-((4-(difluoromethyl)-6-(1-(3,4-dimethoxybenzyl)-6-oxo-1,6-dihydropyridin-3-yl)pyrimidin-2-yl)sulfinyl)-N-methylpropane-1-sulfonamide]
0.001 to 1 µM | COc1ccc(Cn2cc(-c3cc(C(F)F)nc(S(=O)(=O)c4cccc(N)c4)n3)ccc2=O)cc1OC [Compound 180, 5-(2-((3-aminophenyl)sulfonyl)-6-(difluoromethyl)pyrimidin-4-yl)-1-(3,4-dimethoxybenzyl)pyridin-2 (1H)-one]
0.001 to 1 µM | COc1ccc(Cn2cc(-c3cc(C(F)F)nc([S+]([O-])c4cccc(N)c4)n3)ccc2=O)cc1OC (centres unmarked) [Compound 181, 5-(2-((3-aminophenyl)sulfinyl)-6-(difluoromethyl)pyrimidin-4-yl)-1-(3,4-dimethoxybenzyl)pyridin-2 (1H)-one]
0.001 to 1 µM | COc1ccc(Cn2cc(-c3cc(C(F)F)nc(S(=O)(=O)c4cccc(NC(C)=O)c4)n3)ccc2=O)cc1OC [Compound 182, N-(3-((4-(difluoromethyl)-6-(1-(3,4-dimethoxybenzyl)-6-oxo-1,6-dihydropyridin-3-yl)pyrimidin-2-yl)sulfonyl)phenyl)acetamide]
0.001 to 1 µM | CCCCCCNC(=O)CCCS(=O)(=O)c1nc(-c2ccc(=O)n(Cc3ccc(OC)c(OC)c3)c2)cc(C(F)F)n1 [Compound 183, 4-((4-(difluoromethyl)-6-(1-(3,4-dimethoxybenzyl)-6-oxo-1,6-dihydropyridin-3-yl)pyrimidin-2-yl)sulfonyl)-N-hexylbutanamide]
0.001 to 1 µM | CCCCCCNC(=O)CCC[S+]([O-])c1nc(-c2ccc(=O)n(Cc3ccc(OC)c(OC)c3)c2)cc(C(F)F)n1 (centres unmarked) [Compound 184, 4-((4-(difluoromethyl)-6-(1-(3,4-dimethoxybenzyl)-6-oxo-1,6-dihydropyridin-3-yl)pyrimidin-2-yl)sulfinyl)-N-hexylbutanamide]
1 to 10 µM | COc1ccc(Cn2cc(-c3cc(C(F)F)nc(S(=O)(=O)CCCNC(C)=O)n3)ccc2=O)cc1OC [Compound 185, N-(3-((4-(difluoromethyl)-6-(1-(3,4-dimethoxybenzyl)-6-oxo-1,6-dihydropyridin-3-yl)pyrimidin-2-yl)sulfonyl)propyl)acetamide]
0.001 to 1 µM | COc1ccc(Cn2cc(-c3cc(C(F)F)nc(S(=O)(=O)CCCS(=O)(=O)c4nc(-c5ccc(=O)n(Cc6ccc(OC)c(OC)c6)c5)cc(C(F)F)n4)n3)ccc2=O)cc1OC [Compound 186, 5,5′-(2,2′-(propane-1,3-diyldisulfonyl)bis(6-(difluoromethyl)pyrimidine-4,2-diyl))bis(1-(3,4-dimethoxybenzyl)pyridin-2 (1H)-one)]
